Measured values: publication PMC5797166, “A multidrug ABC transporter with a taste for GTP” (Scientific Reports, 2018)

Key:
BmrC/BmrD = target: T1, BmrC/BmrD (Bacillus subtilis, UniProt O07549+O07550); assay: fluorescence transport assay, inside-out E. coli membrane vesicles; type: biochemical; details: 2 mM ATP or GTP, Walker-A K/A double mutant as control
T1 construct: full-length heterodimer overexpressed in E. coli, inside-out membrane vesicles

PatA/PatB = target: T2, PatA/PatB (Streptococcus pneumoniae, UniProt Q8DN70+Q8DN72); assay: coupled NADH oxidation assay, GTPase; type: biochemical; details: nanodiscs of S. pneumoniae lipids, 4 mM GTP, 2 mM MgCl2, pH 7.4
T2 construct: gene ABC-NP; models PatA 1-564, PatB 1-603

[1] = test system: Nc1nc2c(ncn2[C@@H]2O[C@H](COP(=O)(O)OP(=O)(O)OP(=O)(O)O)[C@@H](O)[C@H]2O)c(=O)[nH]1; assay: purified protein; type: biochemical, Streptococcus pneumoniae; details: proteoliposomes of E. coli lipids, 10 mM MgCl2, pH 8, 37 °C, cooperative fit, nH 1.74

T1 sequence (O07550 whole entry): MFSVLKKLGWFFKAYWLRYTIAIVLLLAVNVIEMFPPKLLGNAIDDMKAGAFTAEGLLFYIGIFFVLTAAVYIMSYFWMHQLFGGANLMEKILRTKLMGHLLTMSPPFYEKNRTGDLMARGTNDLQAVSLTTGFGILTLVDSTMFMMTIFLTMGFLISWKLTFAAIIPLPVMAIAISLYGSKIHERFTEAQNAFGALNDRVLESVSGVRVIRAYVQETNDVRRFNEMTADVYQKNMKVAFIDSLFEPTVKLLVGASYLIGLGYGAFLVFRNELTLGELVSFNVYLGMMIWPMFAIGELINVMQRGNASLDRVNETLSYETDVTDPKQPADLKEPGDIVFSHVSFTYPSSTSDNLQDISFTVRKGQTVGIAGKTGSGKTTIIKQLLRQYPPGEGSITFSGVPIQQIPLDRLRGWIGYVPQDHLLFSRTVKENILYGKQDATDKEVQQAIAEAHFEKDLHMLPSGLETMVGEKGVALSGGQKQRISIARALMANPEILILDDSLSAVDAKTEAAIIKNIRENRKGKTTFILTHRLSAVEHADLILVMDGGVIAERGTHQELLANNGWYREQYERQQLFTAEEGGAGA
T1 sequence (O07549 whole entry): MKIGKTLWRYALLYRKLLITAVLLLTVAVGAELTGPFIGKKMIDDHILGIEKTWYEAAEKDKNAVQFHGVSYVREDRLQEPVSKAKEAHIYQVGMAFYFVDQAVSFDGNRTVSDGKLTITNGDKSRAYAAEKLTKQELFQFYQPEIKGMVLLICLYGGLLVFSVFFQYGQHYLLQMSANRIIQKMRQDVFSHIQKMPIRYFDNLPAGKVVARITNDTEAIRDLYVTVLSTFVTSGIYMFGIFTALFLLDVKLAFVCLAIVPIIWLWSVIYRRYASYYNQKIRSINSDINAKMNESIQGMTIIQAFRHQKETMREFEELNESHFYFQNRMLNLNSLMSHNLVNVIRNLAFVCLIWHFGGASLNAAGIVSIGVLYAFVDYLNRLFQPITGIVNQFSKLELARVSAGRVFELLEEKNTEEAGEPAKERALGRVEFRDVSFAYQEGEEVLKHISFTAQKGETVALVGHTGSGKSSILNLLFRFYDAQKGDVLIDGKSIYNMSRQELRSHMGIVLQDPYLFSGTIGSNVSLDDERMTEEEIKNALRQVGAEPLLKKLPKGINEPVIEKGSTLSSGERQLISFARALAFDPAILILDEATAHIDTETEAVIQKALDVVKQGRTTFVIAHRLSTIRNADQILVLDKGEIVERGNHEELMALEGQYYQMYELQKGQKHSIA
T2 sequence (Q8DN70 entry or part of it): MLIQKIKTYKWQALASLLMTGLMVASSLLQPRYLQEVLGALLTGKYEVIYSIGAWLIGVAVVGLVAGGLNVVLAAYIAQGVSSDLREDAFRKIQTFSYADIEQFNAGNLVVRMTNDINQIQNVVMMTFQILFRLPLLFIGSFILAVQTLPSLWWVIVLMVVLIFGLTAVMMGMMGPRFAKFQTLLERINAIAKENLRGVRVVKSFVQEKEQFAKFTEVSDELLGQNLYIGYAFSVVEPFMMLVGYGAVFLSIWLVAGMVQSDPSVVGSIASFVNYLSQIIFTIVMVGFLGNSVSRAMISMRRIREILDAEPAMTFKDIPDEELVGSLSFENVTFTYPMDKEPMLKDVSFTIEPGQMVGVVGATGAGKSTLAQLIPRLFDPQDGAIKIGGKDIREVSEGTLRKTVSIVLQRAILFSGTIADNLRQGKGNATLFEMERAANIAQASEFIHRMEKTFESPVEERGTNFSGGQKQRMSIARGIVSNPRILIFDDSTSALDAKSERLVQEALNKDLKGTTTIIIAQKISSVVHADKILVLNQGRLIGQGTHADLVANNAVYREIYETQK
T2 sequence (Q8DN72 entry or part of it): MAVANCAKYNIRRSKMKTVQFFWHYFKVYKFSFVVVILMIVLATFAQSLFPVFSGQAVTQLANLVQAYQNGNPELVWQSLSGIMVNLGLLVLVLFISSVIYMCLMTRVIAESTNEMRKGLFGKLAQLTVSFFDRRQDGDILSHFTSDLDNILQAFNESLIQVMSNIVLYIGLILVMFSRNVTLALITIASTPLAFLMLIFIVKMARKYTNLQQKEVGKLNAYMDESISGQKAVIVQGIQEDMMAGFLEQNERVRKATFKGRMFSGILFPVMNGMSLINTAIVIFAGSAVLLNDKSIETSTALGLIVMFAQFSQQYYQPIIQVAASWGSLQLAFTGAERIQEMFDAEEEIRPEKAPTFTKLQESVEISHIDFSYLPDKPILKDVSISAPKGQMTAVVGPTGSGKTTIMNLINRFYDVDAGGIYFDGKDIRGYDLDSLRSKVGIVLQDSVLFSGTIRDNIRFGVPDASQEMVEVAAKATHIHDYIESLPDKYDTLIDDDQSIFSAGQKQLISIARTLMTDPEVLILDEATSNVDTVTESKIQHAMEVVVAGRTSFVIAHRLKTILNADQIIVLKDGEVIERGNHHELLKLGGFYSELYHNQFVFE

## CCOc1ccc(-c2nc3ccc(-c4nc5ccc(N6CCN(C)CC6)cc5[nH]4)cc3[nH]2)cc1 [Hoechst 33342, 2′-(4-ethoxyphenyl)-5-(4-methyl-1-piperazinyl)-2,5′-bis-1H-benzimidazole]
BmrC/BmrD; 1 µM Hoechst, 2 mM MgCl2, pH 8.0, 25 °C
  fluorescence transport assay, inside-out E. coli membrane vesicles: BmrC/BmrD behaves as a conventional ABC transporter being more active in the presence of ATP

## COc1cccc2c1C(=O)c1c(O)c3c(c(O)c1C2=O)C[C@@](O)(C(=O)CO)C[C@@H]3O[C@H]1C[C@H](N)[C@H](O)[C@H](C)O1 [doxorubicin]
BmrC/BmrD; 2 µM doxorubicin, 2 mM MgCl2, pH 8.0, 25 and 37 °C
  fluorescence transport assay, inside-out E. coli membrane vesicles: ATP was the preferred energy substrate for BmrC/BmrD at both temperatures

## [O]=[V]([OH])([OH])[OH] [orthovanadate]
PatA/PatB
  % inhibition at 4 mM: 94%

## PatA/PatB (Streptococcus pneumoniae R6)
[1]
  Km: 2640 ± 460 µM
